Reference: patent US20100190813A1, “SPIRO [PIPERIDINE-4- 4' -THIENO [3,2-C] PYRAN] DERIVATIVES AND RELATED COMPOUNDS AS INHIBITORS OF THE SIGMA RECEPTOR FOR THE TREATMENT OF PSYCHOSIS” (priority 2007, published 2010)
Where two headings read alike, the source gives them in different places.

Columns and labels:
σ2-receptor = molecular target: T1, σ2-receptor (Rattus norvegicus, UniProt Q5U3Y7); assay: Sigma 2 receptor binding (Version B), [3H]-Ditolylguanidin displacement; details: version B, rat liver preparation; for Ki: [3H]-Ditolylguanidin 3 nM, σ1 sites masked with (+)-Pentazocin 500 nM; for inhibition at 1 µM: read-out: Binding σ2 *[Inhibition at 1 μM]
T1 construct: the σ2-Receptorpreparation was prepared from rat liver; from tissue; host or cells: rat liver membrane homogenate
T1 sequence (Q5U3Y7 1-176): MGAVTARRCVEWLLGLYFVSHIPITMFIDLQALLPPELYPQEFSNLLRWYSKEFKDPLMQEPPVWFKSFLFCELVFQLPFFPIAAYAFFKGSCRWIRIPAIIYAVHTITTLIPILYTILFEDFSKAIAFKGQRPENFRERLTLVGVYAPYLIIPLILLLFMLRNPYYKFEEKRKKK
Procedure: In brief the σ2-Receptorpreparation was prepared from rat liver. The livers were homogenized in 5 to 6 times of volume sucrose solution (0.32M) and homogenized. The homogenate was centrifuged at 2900 rpm, 4° C., 10 min). the supernatant was centrifuged again (31000×g, 4° C., 20 min). The pellet was resuspended in TRIS-buffer, incubated for 30 min at room temperature while stirring and centrifuged f (31000×g, 4° C., 20 min). The pellet was resuspended in cold TRIS-buffer pH 8 and homogenized. Then the protein content was measured (approx. 2 mg/mL) and the homogenate frozen at −80° C. for later use.
The radioligand used was [^3H]-Ditolylguanidin in TRIS-buffer pH 8. The σ1-receptor binding sites were masked through (+)-Pentazocin-solution in TRIS-Puffer pH 8.
In a volume of 200 μL 50 μL compound solution of varying concentration, 50 μL (+)-Pentazocin-solution ([…]; resulting in 500 nM in the assay), 50 μL radioligand-solution (12 nM; resulting in 3 nM in the assay) and finally 50 μL of receptor preparation (approx. 2 mg/mL) were given into a well of a microplate equipped with a filter. The plate was closed and stirred for 2 h at room temperature and 500 rpm. Following that the solvents were removed by a harvester through the filter. After rinsing with H2O the filter was measured in a scintillation counter ([^3H]-protocol).

σ1-receptor [1] = molecular target: T2, σ1-receptor (Cavia porcellus, UniProt Q60492); assay: Sigma 1 receptor binding (Version B), [3H]-(+)-Pentazocin displacement; design: species or system guinea pig
T2 construct: the σ1-receptor preparation was prepared from guinea pig brain; from tissue; host or cells: guinea pig brain membrane homogenate
Procedure: In brief the σ1-receptor preparation was prepared from guinea pig brain. The brains were homogenized in 5 to 6 times of volume sucrose solution (0.32M) and homogenized. The homogenate was centrifuged at 2900 rpm, 4° C., 10 min). the supernatant was centrifuged again (23500×g, 4° C., 20 min). The pellet was resuspended in Tris-buffer, incubated for 30 min at room temperature and centrifuged f (23500×g, 4° C., 20 min). The pellet was resuspended in cold TRIS-buffer and homogenized. Then the protein content was measured (approx. 1.5 mg/mL) and the homogenate frozen at −80° C. for later use.
The radioligand used was [^3H]-(+)-Pentazocin in TRIS-buffer. In a volume of 200 μL 50 μL TRIS-buffer, 50 μL compound solution of varying concentration, 50 μL radioligand-solution (8 nM; resulting in 2 nM in the assay) and finally 50 μL of receptor preparation (approx. 1.5 mg/mL) were given into a well of a microplate equipped with a filter. The plate was closed and stirred for 2.5 h at 37° C. and 500 rpm. Following that the solvents were removed by a harvester through the filter. After rinsing with H2O the filter was measured in a scintillation counter ([^3H]-protocol).

σ1-receptor [2] = molecular target: T2, σ1-receptor; assay: Sigma-1 receptor binding (Version A), [3H]-(+)-pentazocine displacement; design: species or system guinea pig
[3] = version B, guinea pig brain preparation, [3H]-(+)-Pentazocin 2 nM, read-out: Binding σ1 Ki

T2 sequence (Q60492 whole entry): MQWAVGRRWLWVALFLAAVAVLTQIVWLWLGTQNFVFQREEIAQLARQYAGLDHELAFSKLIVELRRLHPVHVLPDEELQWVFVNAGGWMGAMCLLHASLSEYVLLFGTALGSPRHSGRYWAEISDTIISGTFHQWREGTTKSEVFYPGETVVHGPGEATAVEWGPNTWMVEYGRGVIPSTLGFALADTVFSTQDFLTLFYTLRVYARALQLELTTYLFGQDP

CCCCCCCCN1CCC2(CC1)OC(OC)Cc1sccc12 (stereo not drawn) [Example 10, 6′-Methoxy-1-octyl-6′,7′-dihydrospiro[piperidin-4,4-thieno[3.2-c]pyran]]
Ki (σ2-receptor; read-out: Binding σ2 Ki): 1200 nM | Ki (σ1-receptor [1]): 0.0045 ± 0.002 µM

COC1Cc2sccc2C2(CCN(Cc3cccs3)CC2)O1 (stereo not drawn) [Example 15, 6′-Methoxy-1-(thien-2-ylmethyl)-6′,7′-dihydrospiro[piperidin-4,4′-thieno[3.2-c]pyran]]
Ki (σ2-receptor; read-out: Binding σ2 Ki): 1040 nM | Ki (σ1-receptor [1]; [3]): 0.00202 ± 0.00061 µM

COC1Cc2sc(CN(C)C)cc2C2(CCN(Cc3ccccc3)CC2)O1 (stereo not drawn) [Example 42, (1-Benzyl-6′-methoxy-6′,7′-dihydrospiro[piperidine-4,4′-thieno[3.2-c]pyrano]-2′-yl)-N,N-dimethylmethanamine]
Ki (σ2-receptor; read-out: Binding σ2 Ki): 898 nM | Ki (σ1-receptor [1]): 0.0168 ± 0.0011 µM

COC1Cc2sc(C(OC)OC)cc2C2(CCN(Cc3ccccc3)CC2)O1 (stereo not drawn) [Example 37]
melting point: 71 °C

CCCCCN1CCC2(CC1)OC(OC)Cc1sccc12 (stereo not drawn) [Example 9, 6′-Methoxy-1-pentyl-6′,7′-dihydrospiro[piperidin-4,4′-thieno[3.2-c]pyran]]
Ki (σ2-receptor; read-out: Binding σ2 Ki): 460 nM | Ki (σ1-receptor [2]): 0.0029 ± 0.0005 µM | Ki (σ1-receptor [1]): 0.00164 ± 0.00053 µM

NC(=O)C1Cc2sccc2C2(CCN(Cc3ccccc3)CC2)O1 (stereo not drawn) [Example 29, 1-Benzyl-6′,7′-dihyrospiro[piperidine-4,4′-thieno[3,2-c]pyrano]-6′-carboxamide]
inhibition at 1 µM (σ2-receptor; compound at 1 μM): 63%

COC1Cc2sccc2C2(CCN(CC=C(C)C)CC2)O1 (stereo not drawn) [Example 7, 6′-Methoxy-1-(3-methylbut-2-enyl)-6′,7′-dihydrospiro[piperidin-4.4-thieno[3.2-c]pyran]]
Ki (σ2-receptor; Binding σ2 Ki [nM]): 78.1 ± 74 nM | Ki (σ1-receptor [1]): 0.00096 ± 0.00025 µM

COC1Cc2sccc2C2(CCN(CC3CCCCC3)CC2)O1 (stereo not drawn) [Example 5, 1-(Cyclohexylmethyl)-6′Methoxy-6′,7′-dihydrospiro[piperidin-4,4′-thieno[3.2-c]pyran]]
Ki (σ1-receptor [2]; version A, guinea pig brain membranes, [3H]-(+)-pentazocine 3.0 nM, read-out: Binding σ1, Ki): 0.0022 ± 0.0003 µM | Ki (σ1-receptor [1]; [3]): 0.00029 ± 7.9e-05 µM

N#CCC1Cc2sccc2C2(CCN(Cc3ccccc3)CC2)O1 (stereo not drawn) [Example 18, {1-Benzyl-6′,7′-dihyrospiro[piperidin-4,4′-thieno[3,2-c]pyran]-6′-yl}acetonitril]
inhibition at 1 µM (σ2-receptor; compound at 1 μM): 6%

COC1Cc2sccc2C2(CCNCC2)O1 (stereo not drawn) [Example 2, 6′-Methoxy-6′,7′-dihydrospiro[piperidin-4,4′-thieno[3,2-c]pyran]
inhibition at 1 µM (σ2-receptor; compound at 1 μM): 17% | Ki (σ1-receptor [1]; [3]): 0.602 µM

COC1Cc2sc(Cl)cc2C2(CCN(Cc3ccccc3)CC2)O1 (stereo not drawn) [Example 38, 1-Benzyl-2′-chloro-6′-methoxy-6′,7′-dihydrospiro[piperidine-4,4′-thieno[3.2-c]-pyrano]]
inhibition at 1 µM (σ2-receptor; compound at 1 μM): 49% | melting point: 117 °C

COC1Cc2sc(C#N)cc2C2(CCN(Cc3ccccc3)CC2)O1 (stereo not drawn) [Example 44, 1-Benzyl-6′-methoxy-6′,7′-dihydrospiro[piperidine-4,4′-thieno[3,2-c]pyrano]-2-carbonitrile]
inhibition at 1 µM (σ2-receptor; compound at 1 μM): 16%

CCOC(=O)C1Cc2sccc2C2(CCN(Cc3ccccc3)CC2)O1 (stereo not drawn) [Example 33, Ethyl-1-benzyl-6′,7′-dihvrospiro[piperidine-4,4′-thieno[3,2-c]pyrano]-6′-carboxylate]
inhibition at 1 µM (σ2-receptor; compound at 1 μM): 0%

COC(=O)c1cc2c(s1)CC(OC)OC21CCN(Cc2ccccc2)CC1 (stereo not drawn) [Example 45, Methyl-1-benzyl-6′-methoxy-6′,7′-dihydrospiro[piperidine-4,4′-thieno[3,2-c]pyrano]-2-carboxylate]
inhibition at 1 µM (σ2-receptor; compound at 1 μM): 45%

N#CCC1Cc2sccc2C2(CCN(Cc3ccccc3)CC2)O1 (stereo not drawn) [Example 23a]
Binding σ2 *[Inhibition at 1 μM] (σ2-receptor; compound at 1 μM, 1 µM): 6%
